1 compound from publication PMC9986241 (Signal Transduction and Targeted Therapy, 2023) can be followed below.

Series [1] has as its target T1, active CRAF (306-end) (Homo sapiens, UniProt P04049, Y340E/Y341E).
T1 construct: purchased Signal Chem R01-13G
Description: In vitro kinase assay (western blotting). The following applies: 12.5 to 50 nM, dose-dependent. The series is classed as biochemical. The procedure: (§1) After incubated with 100–400 μM ATP in kinase assay buffer for 30 min, the phosphorylation of the substrate/total substrate protein was detected by western blotting. For ADP-glo kinase assay, unconsumed ATP was depleted with the addition of ADP-Glo™. Followed by kinase detection reagent to convert ADP to ATP, consumption of ATP was detected to evaluate the kinase activity. For more details, refer to the manufacturer’s instructions of ADP-Glo™ Kinase Assay.

For series [2], the target named is active GST-MEK1 full length (Homo sapiens, UniProt Q02750). The series can be described thus: In vitro kinase assay (western blotting). In kind it is biochemical. Conditions: 12.5 to 50 nM, dose-dependent. The procedure: as §1
In series [3] the target is active GST-MEK2 full length (Homo sapiens, UniProt P36507). Description: In vitro kinase assay (western blotting). In kind it is biochemical. Conditions: 12.5 to 50 nM, dose-dependent. The procedure: as §1
Background: In western blotting, separated proteins are transferred to a membrane and probed.

The target in series [4] is T2, BRAF (Homo sapiens, UniProt P15056, V600E).
T2 construct: endogenous in cells; host or cells: A375
The series can be described thus: Erianin-conjugated Sepharose 4B bead pull-down assay. In kind it is binding. Conditions: in vitro and ex vivo (A375 cell lysate). The protocol: Cell lysate (500 μg) or recombinant proteins (200 ng) were incubated with erianin-CNBr activated sepharose 4B overnight at 4 °C, and the protein-beads complex was washed four times by the use of rotational incubator to remove non-specific binding. Western blotting was developed to check the pull-down bands.

Series [5] deals with T3, CRAF (Homo sapiens, UniProt P04049, Y340E/Y341E).
T3 construct: purchased Signal Chem R01-13G
The series can be described thus: Luminescent ADP detection (ADP-glo kinase) assay. Conditions: 1–100 nM. The series is classed as biochemical. The procedure: as §1
In general terms: ADP-Glo turns the ADP formed in a reaction into a luminescent signal.

The target of series [6] is MEK2 (Homo sapiens, UniProt P36507). Description: Luminescent ADP detection (ADP-glo kinase) assay. In kind it is biochemical. Conditions: 1–100 nM. The procedure:
as §1

In series [7] the target is MEK1 (Homo sapiens, UniProt Q02750). Description: Luminescent ADP detection (ADP-glo kinase) assay. In kind it is biochemical. Conditions: 1–100 nM. The procedure: as §1
For series [8], the system named is A375 (BRAF V600E) CDX. The series can be described thus: Cell-derived xenograft (CDX). Conditions: 50 mg/kg, oral gavage. The procedure: (§2) Tumor volume (mm^3) = (length × width × height) × 0.52. SK-MEL-2: n = 10; A375 and SK-MEL-28: n = 8; HCT116: n = 9. b The photographs show tumors from CDX mice treated with vehicle, erianin, vemurafenib, or the combination. c The weight of the tumors was quantified and expressed as the treatment groups compared with the vehicle-treated group. […] The tissue lysates were prepared from CDX tumor tissues in each treatment group. […] Each point represents the IOD values of four quantified data from one mouse. Scale bars: 50 μm.
(§3) The animal experiments were performed according to the guidelines approved by the Zhengzhou University Institutional Animal Care and Use Committee. A375 cell line (1 × 10^7 cell/mouse), SK-MEL-28 cell line (5 × 10^6 cell/mouse), SK-MEL-2 cell (5 × 10^6 cell/mouse), and HCT116 cell line (1 × 10^7 cell/mouse) were injected subcutaneously into the NOD-SCID mice (Vital River Labs, Beijing, China). For the melanoma PDX mice model, the tumor was taken after surgical operation and implanted into the NPG (Vital River Labs, Beijing, China) mice under a sterile environment. For the colorectal cancer PDX mice model, NOD-SCID mice were selected as carriers for tumor growth. The measurement of tumor size was performed twice a week using vernier caliper and the calculation of tumor volume was done according to tumor volume (mm^3) = length × width × height × 0.52.

Series [9] relates to SK-MEL-28 (BRAF V600E) CDX. The series can be described thus: Cell-derived xenograft (CDX). The following applies: 50 mg/kg, oral gavage. The protocol: as §2, §3
Series [10] concerns B16F10 CDX. Description: B16F10 cell xenograft. The series is classed as in vivo, C57BL-6J mice. The text has this: Decrease of phospho-MEK1/2 was only observed in erianin and erianin/vemurafenib dual-therapy group, and even all erianin, erianin/vemurafenib dual-therapy, cobimetinib, and cobimetinib/vemurafenib dual-therapy group inhibited phosphorylation of ERK1/2 (Fig. 7d). […] Several clinical studies reveal that immune checkpoint therapies PD-1/PD-L1 synergistically promote RAF inhibitor in treatment of melanoma. Therefore, we checked the immune response involved in antitumor effect of erianin in vivo. After immunosuppression by hydrocortisone (50 mg/kg) for 1 week, B16F10 cell was implanted into C57BL-6J mice followed by vehicle or drug treatment. […]
Fig. 7 Erianin exerts antitumor efficacy in melanoma and colorectal cancer in vivo. a Tumor pharmacodynamic assay was performed in tumor-bearing NPG mice (tumor has been passaged from melanoma patient to mice for three generations). […] Tumor volume was measured once a week. […] One-way ANOVA test. ***p < 0.001. e Antitumor efficacy of erianin with or without immunity using B16F10 cell xenograft in C57BL-6J mouse. f, g Trend of tumor volume over time and tumor weight was measured after treatment on the last day of the study.
Peripheral blood or spleen lymphocytes (CD8a^+, CD4^+, and NK cell) in B16F10 CDX model after treated with erianin were quantified using BD FACSAria^TM III cell sorter. […]

Series [11] relates to SK-MEL-2 (NRAS mut) CDX. Description: Cell-derived xenograft (CDX). The series is classed as in vivo, NOD-SCID mice. Conditions: 50 mg/kg, oral gavage. The procedure: as §2, §3
Series [12] relates to HCT116 (KRAS mut) CDX. The series can be described thus: Cell-derived xenograft (CDX). The series is classed as in vivo, NOD-SCID mice. The following applies: 50 mg/kg, oral gavage. The protocol:
as §2, §3

active GST-MEK2 full length, sequence (P36507 whole entry): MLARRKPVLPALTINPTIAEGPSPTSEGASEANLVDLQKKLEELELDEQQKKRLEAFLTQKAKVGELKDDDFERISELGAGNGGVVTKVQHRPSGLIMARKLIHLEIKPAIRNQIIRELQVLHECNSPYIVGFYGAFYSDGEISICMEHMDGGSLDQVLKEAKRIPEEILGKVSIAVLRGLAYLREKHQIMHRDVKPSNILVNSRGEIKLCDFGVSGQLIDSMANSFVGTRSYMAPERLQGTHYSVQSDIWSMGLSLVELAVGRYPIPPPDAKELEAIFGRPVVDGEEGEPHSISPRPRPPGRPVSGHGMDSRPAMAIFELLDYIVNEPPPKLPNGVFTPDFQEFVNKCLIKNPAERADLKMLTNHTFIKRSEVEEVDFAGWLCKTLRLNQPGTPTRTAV
MEK2, sequence (P36507 whole entry): as above
active GST-MEK1 full length, sequence (Q02750 whole entry): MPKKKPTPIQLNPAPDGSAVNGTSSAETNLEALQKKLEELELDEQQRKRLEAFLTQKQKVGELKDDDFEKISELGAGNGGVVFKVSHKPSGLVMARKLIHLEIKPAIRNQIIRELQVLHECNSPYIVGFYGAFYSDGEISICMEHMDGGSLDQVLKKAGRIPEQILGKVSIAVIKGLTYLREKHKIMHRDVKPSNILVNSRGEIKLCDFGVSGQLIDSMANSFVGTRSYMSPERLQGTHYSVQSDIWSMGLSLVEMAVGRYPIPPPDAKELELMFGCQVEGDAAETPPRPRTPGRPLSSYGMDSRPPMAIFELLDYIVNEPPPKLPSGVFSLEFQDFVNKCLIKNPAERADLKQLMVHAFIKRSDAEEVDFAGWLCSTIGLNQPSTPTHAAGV
MEK1, sequence (Q02750 whole entry): as above
T2 sequence (P15056 whole entry V600E): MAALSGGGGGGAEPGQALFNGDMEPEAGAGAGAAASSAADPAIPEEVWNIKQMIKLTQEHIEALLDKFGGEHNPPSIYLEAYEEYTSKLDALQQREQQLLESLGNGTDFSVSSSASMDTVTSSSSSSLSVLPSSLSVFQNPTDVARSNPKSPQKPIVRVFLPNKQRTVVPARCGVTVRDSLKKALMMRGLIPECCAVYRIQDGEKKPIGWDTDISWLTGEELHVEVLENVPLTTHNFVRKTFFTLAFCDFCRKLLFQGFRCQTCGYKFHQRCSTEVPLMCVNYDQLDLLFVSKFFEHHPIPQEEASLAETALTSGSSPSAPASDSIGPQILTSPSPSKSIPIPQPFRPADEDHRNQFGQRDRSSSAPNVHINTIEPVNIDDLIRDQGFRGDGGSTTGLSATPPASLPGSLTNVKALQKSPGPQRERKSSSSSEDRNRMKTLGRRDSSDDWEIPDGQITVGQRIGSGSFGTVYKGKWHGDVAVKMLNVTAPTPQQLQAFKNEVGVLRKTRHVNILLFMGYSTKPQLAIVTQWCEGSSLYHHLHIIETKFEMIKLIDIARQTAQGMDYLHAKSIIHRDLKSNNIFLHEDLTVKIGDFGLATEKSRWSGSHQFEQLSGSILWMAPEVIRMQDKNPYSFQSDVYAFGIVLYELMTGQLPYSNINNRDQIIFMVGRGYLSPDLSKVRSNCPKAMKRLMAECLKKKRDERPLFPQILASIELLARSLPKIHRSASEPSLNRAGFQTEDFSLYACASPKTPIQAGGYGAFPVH

For the compound `COc1ccc(CCc2cc(OC)c(OC)c(OC)c2)cc1O` [Erianin], the “CRAF kinase activity (phosphorylation of MEK1)” value in [1] is given as “inhibited”. The “MEK1 kinase activity (phosphorylation of ERK1)” value in [2] is reported as “inhibited”. Further, the “MEK2 kinase activity (phosphorylation of ERK2)” value in series [3] is “inhibited”. For the same compound, the binding in pull-down result in [4] is recorded as “directly bound”. Further, the “kinase activity (luminescence signal)” value in [5], in series [6] and in series [7] was “inhibited the kinase activity” in each case. Further, the body weight entry in series [8] and in series [9] was “no significant reduction” in each case. The tumor volume result in [8] (vs vehicle-treated group) and in series [9] (vs vehicle-treated group) was “significant decrease” in each case. The “CD8a+, CD4+ T cells, and NK cells” value in series [10] (flow cytometry after erianin treatment) is on record as “increased significantly”. The tumor growth entry in series [10] (monotherapy) is “inhibited tumor growth”. In addition, the “tumor volume and tumor weight” value in series [11] is “inhibited tumor volume and tumor weight significantly”; in series [12], “inhibited tumor volume and tumor weight significantly”.
